{"source": "patent US12265087B2", "about": "“Olfactory receptor as microglia marker and use thereof” (DAEGU GYEONGBUK INSTITUTE OF SCIENCE AND TECHNOLOGY, priority 2019, dated 2025)", "key": {"primary microglia [1]": {"test_system": "primary microglia", "assay": "mRNA-sequencing of primary microglia (DEGs, GOBP)", "type": "cell-based, mouse", "details": "Sup MOI 100 or 2-PF 100 μM, 2 hours", "description": "After a vehicle (control), Sup (MOI 100) or 2-PF (100 μM) treatment for 2 hours, total RNA was isolated from 2×10^6 cells of primary microglia using a RNeasy miniKit (Qiagen, 74104), and analyzed using a Qubit RNA HS assay kit (Thermo Fisher Scientific, Q32852) according to the manufacturer's standard protocol for quantification. The RNA integrity number (RIN) of each sample was measured using the Agilent Technologies 2100 BioAnalyzer, and the RINs of all samples were 8.5 or more, which is suitable for mRNA sequencing. Full-length cDNA was generated using a SMARTer-Seq v4 Ultra Low input RNA Kit (Clontech, 634888) according to the manufacturer's recommended protocol. The first strand synthesis of cDNA was initiated from 10 ng total RNA by adding 1 μl of 3′ SMART CDS primer II A for 3 minutes at 72° C. […] After PCR, the DNA library was purified using AMPure beads and quality was assessed by an Agilent 2100 Bioanalyzer. A DNA library of each sample was quantified using a KAPA library quantification kit (KAPA Biosystems, KK4854) and then pooled. All libraries were sequenced using an Illumina Hiseq2500 instrument to generate dual-indexed 100-bp paired reads, thereby obtaining an average of 58 million reads for each sample. […] The remaining reads were aligned to the mouse reference genome (GRCm38) using TopHat (Trapnell et al., 2009) with default options. […]"}, "primary microglia [2]": {"test_system": "primary microglia", "assay": "Boyden chamber chemotaxis of primary microglia", "type": "cell-based, mouse", "details": "100, 300 and 500 μM", "description": "In this example, microglia or astrocytes were primarily extracted from the cerebral cortex of E18.5 mouse embryos (Tamashiro et al., 2012), and cultured as described in Example 1. More specifically, the mouse embryonic cortex was collected, stored in a cold supernatant (#14170-112; Thermo Fisher Scientific), and pretreated in a 0.25% trypsin solution (#15090-046; Thermo Fisher Scientific) at 37° C. for 20 minutes. Afterward, cells were plated in a minimum nutrient medium supplemented with 10% FBS (#SH30919.03; Hyclone), 2 mM L-glutamine (#25030-081; Thermo Fisher Scientific), 0.04% glucose (#G7021; Sigma Aldrich), and 1% penicillin/streptomycin (#15140-122; Thermo Fisher Scientific), and filtered through a […] strainer (#352340; Thermo Fisher Scientific). The microglia were plated at a density of 1.2×10^7 cells in a T75 flask coated with poly-D-lysine (#P7280; Sigma Aldrich). […] Purities of the collected microglia and astrocytes were evaluated by qRT-PCR assay and immunocytochemistry using a marker gene and proteins such as Iba-1 and Gfap.\nChemotaxis was measured using a multi-well Boyden chamber. […] The migrated cells were counted under a light microscope in five randomly selected fixed […] fields (200×) using a scored eyepiece. […]"}}}
{"molecule": "CCCCCc1ccco1", "note": "[2-PF, 2-pentylfuran]", "values": [{"measurement": "genes regulated (mRNA-seq)", "setting": "primary microglia [1]", "result": "up-regulate genes involved in microglial activation"}, {"measurement": "chemotaxis", "setting": "primary microglia [2]", "result": "significantly increased in a concentration-dependent manner"}]}
